From paper PMC6904209 (Methods in enzymology, 2017)
Like-named read-outs stand apart in the source and are kept apart here.

Assays:
Human recombinant SCP-2 [1] = molecular target: T1, Human recombinant SCP-2 (Homo sapiens, UniProt P22307); experiment: NBDS displacement assay; assay type: binding; settings: for Max % Displacement: displacement of SCP-2 (500 nM)-bound NBDS (500 nM), 24°C, 10 mM phosphate buffer pH 7.4, n=4
T1 sequence (P22307 1-143 isoform P22307-2): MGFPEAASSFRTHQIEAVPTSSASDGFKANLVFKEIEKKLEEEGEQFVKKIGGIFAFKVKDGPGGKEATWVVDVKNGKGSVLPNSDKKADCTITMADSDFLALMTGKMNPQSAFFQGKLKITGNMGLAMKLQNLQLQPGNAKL

Human recombinant SCP-2 [2] = molecular target: T1, Human recombinant SCP-2; experiment: Reverse and forward titrations of NBDS with SCP-2; assay type: binding; settings: forward titration, SCP-2 500 nM, NBDS 0–1.8 μM
[3] = Ki = (Kd,NBDS × EC50)/[NBDS]total, NBDS 0.5 μM
[4] = Ki, Ki = (Kd,NBDS × EC50)/[NBDS]total, NBDS 0.5 μM

CCCCC/C=C\C/C=C\C/C=C\C/C=C\CCCC(=O)Nc1ccc(O)cc1 [Compound 10, N-arachidonoyl-p-aminophenol]
Ki (Human recombinant SCP-2 [1]; [3]): 1410 ± 30 nM | Max % Displacement (Human recombinant SCP-2 [1]): 89.2 ± 0.8% | Max % Displacement (Human recombinant SCP-2 [1]; listed as AM404): 89%

CC(=O)Nc1ccc(Nc2nc(-c3ccc(Cl)c(Cl)c3)cs2)cc1 [Compound 14]
Ki (Human recombinant SCP-2 [1]; [3]): 1000 ± 100 nM | Max % Displacement (Human recombinant SCP-2 [1]): 96.6 ± 0.7%

CCCCC/C=C\C/C=C\C/C=C\C/C=C\CCCC(=O)NCCc1c[nH]c2ccc(O)cc12 [Compound 8, N-arachidonoyl serotonin]
Ki (Human recombinant SCP-2 [1]; [3]): 1460 ± 20 nM | Max % Displacement (Human recombinant SCP-2 [1]): 84.8 ± 0.8%

CCCCC/C=C\C/C=C\C/C=C\C/C=C\CCCC(=O)NCC(=O)O [Compound 7, N-arachidonoyl glycine]
Ki (Human recombinant SCP-2 [1]; [3]): 1220 ± 30 nM | Max % Displacement (Human recombinant SCP-2 [1]): 82.0 ± 0.8%

CCCCC/C=C\C/C=C\C/C=C\C/C=C\CCCC(=O)NCCc1ccc(O)c(O)c1 [Compound 9, N-arachidonoyl dopamine]
Ki (Human recombinant SCP-2 [1]; [3]): 1120 ± 20 nM | Max % Displacement (Human recombinant SCP-2 [1]): 94.9 ± 0.1%

CCCCC/C=C\C/C=C\C/C=C\C/C=C\CCCC(=O)NC(CO)CO [Compound 4, N-arachidonoyl serinol]
Ki (Human recombinant SCP-2 [1]; [3]): 2950 ± 120 nM | fold reduction in potency compared to 2 (Human recombinant SCP-2 [1]; NBDS displacement, versus 2-AG (2)): 8 fold | Max % Displacement (Human recombinant SCP-2 [1]): 69.2 ± 1.7%

CCCCC/C=C\C/C=C\C/C=C\C/C=C\CCCC(=O)OC(CO)CO [Compound 2, 2-arachidonoylglycerol]
EC50 (Human recombinant SCP-2 [1]): 840 ± 40 nM | Ki (Human recombinant SCP-2 [1]; [4]): 370 ± 20 nM | Max % Displacement (Human recombinant SCP-2 [1]): 55.1 ± 1.0%

CCCCC/C=C\C/C=C\C/C=C\C/C=C\CCCC(=O)OCC(O)CO (stereo not shown) [Compound 3, 1-arachidonoyl glycerol]
EC50 (Human recombinant SCP-2 [1]): 1870 ± 50 nM | Ki (Human recombinant SCP-2 [1]; [4]): 820 ± 20 nM | Max % Displacement (Human recombinant SCP-2 [1]): 57.7 ± 0.7%

CCCCCCCC/C=C\CCCCCCCC(N)=O [Compound 12, Oleamide]
EC50 (Human recombinant SCP-2 [1]): 13100 ± 2300 nM | Ki (Human recombinant SCP-2 [1]): 5800 ± 1000 nM | Max % Displacement (Human recombinant SCP-2 [1]): 68.3 ± 1.7%

CCCCC/C=C\C/C=C\C/C=C\C/C=C\CCCC(=O)NCCF [Compound 5, arachidonoyl-2’-fluoroethylamide]
Ki (Human recombinant SCP-2 [1]; [3]): 2780 ± 210 nM | Max % Displacement (Human recombinant SCP-2 [1]): 64.4 ± 2.2%

CCCCC/C=C\C/C=C\C/C=C\C/C=C\CCCC(N)=O [Compound 11, Arachidonoyl amide]
Ki (Human recombinant SCP-2 [1]; [3]): 1800 ± 100 nM | Max % Displacement (Human recombinant SCP-2 [1]): 71.1 ± 1.3%

CCCCC/C=C\C/C=C\C/C=C\C/C=C\CCCC(=O)OCCN [Compound 6, O-arachidonoylethanolamine]
Ki (Human recombinant SCP-2 [1]; [3]): 1600 ± 20 nM | Max % Displacement (Human recombinant SCP-2 [1]): 94.7 ± 1.6%

CCCCCCC(CCCCCCCCCCC(=O)O)N(C)c1ccc([N+](=O)[O-])c2nonc12 (stereo not shown) [NBDS, 12-N-methyl-(7-nitrobenz-2-oxa-1,3-diazo)aminostearic acid]
Bmax (Human recombinant SCP-2 [2]): 0.89 ± 0.04 binding sites per molecule of SCP-2

CCCCC/C=C\C/C=C\C/C=C\C/C=C\CCCC(=O)NCCO [Compound 1, N-arachidonoylethanolamine]
Ki (Human recombinant SCP-2 [1]; [3]): 680 ± 50 nM | Max % Displacement (Human recombinant SCP-2 [1]): 59.3 ± 1.2%

CC/C=C\C/C=C\C/C=C\C/C=C\C/C=C\C/C=C\CCC(=O)NCCO [Compound 13, docosahexaenoyl ethanolamide]
Ki (Human recombinant SCP-2 [1]; [3]): 1910 ± 40 nM | Max % Displacement (Human recombinant SCP-2 [1]): 73.9 ± 1.3%
